Key:
[1] = target: T1, PDE3 purified from human platelets (Homo sapiens, UniProt Q14432); assay: Phosphodiesterase activity, PDE3; assay type: biochemical; conditions: 10 _M compound, n = 3
T1 construct: PDE3 and PDE5 purified from human platelets; from tissue; host or cells: human platelets
Procedure: PDE3 and PDE5 purified from human platelets and PDE4 purified from human U-937 pronocytic cells were used. Test compound (10 _M) or vehicle was incubated with 0.2 _g of enzyme and 1 _M cAMP containing 0.01 _M [^3H]cAMP in Tris buffer, pH 7.5, for 20 min at 25_. The reaction was terminated by boiling for 2 min, and the resulting cAMP was converted to adenosine by the addition of 10 mg/ml snake venom nucleotidase, which is followed by a further incubation at 37_for 10 min. Unhydrolyzed cAMP was bound to AG1-X2 resin, and the remaining [^3H]adenosine in the aqueous phase was quantitated by scintillation counting.

respiratory performance = assay: Pulmonary function after i.v. injection (RL, Cdyn, tidal volume); assay type: in vivo; conditions: 1 mg/kg i.v., guinea pig, n = 3
Procedure: (§1) Animals: Male Dunkin Harley guinea pigs (350-450 g) were provide by the National Laboratory Animal Breeding and Research Center (Taipei, Taiwan) and housed under conditions of constant temperature and controlled illumination. Food and water were available and libitum. The study was approved by the Animal Care and Use Committee of the Kaohsiung Medical University.
(§2) Pulmonary Function: Guinea pegs (350-450 g) were anesthetized with pentobarbital (40 mg/kg i.p.) and maintained with further i.v. doses of 2 to 5 mg/kg when required according to methods previously described (Wu B N, Lin R J, Lo Y C, Shen K P, Wang C C, Lin Y T, and Chen I J (2004) KMUP-1, a xanthine derivative, induces relaxation of guinea-pig isolated trachea: the role of the epithelium, cyclic nucleotides and K^+ channels, Br J Pharmacol 142:1105-1114). The animal was tethered in a supine position, and the trachea was cannulated below the larynx with a short tracheal cannula via a tracheotomy. Tracheal pressure was measured by a catheter connected to the side arm of the tracheal cannula. The carotid artery and jugular vein were cannulated to monitor blood pressure and heart rate and for drug administration, respectively. Throughout the experiment, the body temperature of the guinea pig was maintained at 37_. Measurements of pulmonary cardiac function were carried out as previously described (Hsu T H, Lai Y L, and Kou Y R (1998) Acetylcholine and tachykinin receptor antagonists attenuate wood smoke-induced bronchoconstriction in Guinea pigs. Eur J Pharmacol 360:175-183). Total lung resistance (RL) and dynamic lung compliance (Cdyn) were measured on a breath-by-breath basis using a computer equipped with an A/D interface (DAS 1600; Buxco Electronics, Inc., Wilmington, N.C.) and software (version 1.5.7; Buxco Electronics, Inc.). Results obtained from the computer analysis were checked for accuracy by comparison with those calculated manually.
Animals were allowed to stabilize for 10 min following surgical manipulations before the test agent was administered. Intratracheal instillation was performed using a catheter placed through the tracheal tube into the bronchial system. The catheter connected to a 1-ml syringe was inserted into the trachea cannula extending 1 cm beyond the tip of the cannula for instillation of drug or vehicle. The instillation was followed by rapid intratracheal injection of 0.5 ml of air to facilitate deposition of drug or vehicle into the lungs as in the modified methods of Chung et al. (2001)(Chung W H, Bennett B M, Racz W J, Brien J F, and […] Fischer 344 rats during aminodarone-induced pulmonary fibrosis. Am J Physiol 281:L1180-L1188). The animals were pretreated intratracheally with KMUP-3 (0.5, 1.0, and 2.0 mg/kg/150 _l of saline) or an equivalent volume (150 _l) of vehicle 15 min before TNF-_(0.01 mg/kg/300 _l saline) was instilled to induce acute bronchoconstriction. In another experiments, KMUP-3 or KMUP-1 (1.0 mg/kg i.v.) were used to compare the effects on respiratory performance, indicated by changes of tidal volume, total RL, and Cdyn.

[2] = test system: TNF-_-induced bronchoconstriction; assay: TNF-_-induced bronchoconstriction, intratracheal instillation; assay type: in vivo, guinea pig
Procedure: as §1, §2
Animals were allowed to stabilize for 10 min following surgical manipulations before the test agent was administered. […]

guinea pig TSM strips = assay: Determination of nitrite in TSM strips; conditions: 100 _M, 30 min, EP+ TSM, basal 0.8±0.1 _M/mg, n=3
Procedure: Determination of Nitrite: To measure concentrations of nitrite (NO2^−) in guinea pig TSM strips, TSM strips were pretreated with KMUP-3 (100 _M) in Krebs' solution for 30 min. Then guinea pig TSM strips (2 ml/g tissue of methanol) were ultrasonically homogenized in an ice bath and then centrifuged at 10,000 g for 10 min at 4_. Briefly, harvestable supernatants were reacted with an equal volume of Griess reagents (1% […]/0.1% N-L-naphthylethylenediamine dihydrochloride/5% H3PO4) for 10 min to form a colored azo dye. The absorbance at 540 nm was detected by a flow-through visible spectrophotometer, and an equal volume of methanol was used for blank control.

[3] = 0.5, 1.0, 2.0 mg/kg intratracheal, 15 min prior to TNF-_ (0.01 mg/kg)

T1 sequence (Q14432 whole entry): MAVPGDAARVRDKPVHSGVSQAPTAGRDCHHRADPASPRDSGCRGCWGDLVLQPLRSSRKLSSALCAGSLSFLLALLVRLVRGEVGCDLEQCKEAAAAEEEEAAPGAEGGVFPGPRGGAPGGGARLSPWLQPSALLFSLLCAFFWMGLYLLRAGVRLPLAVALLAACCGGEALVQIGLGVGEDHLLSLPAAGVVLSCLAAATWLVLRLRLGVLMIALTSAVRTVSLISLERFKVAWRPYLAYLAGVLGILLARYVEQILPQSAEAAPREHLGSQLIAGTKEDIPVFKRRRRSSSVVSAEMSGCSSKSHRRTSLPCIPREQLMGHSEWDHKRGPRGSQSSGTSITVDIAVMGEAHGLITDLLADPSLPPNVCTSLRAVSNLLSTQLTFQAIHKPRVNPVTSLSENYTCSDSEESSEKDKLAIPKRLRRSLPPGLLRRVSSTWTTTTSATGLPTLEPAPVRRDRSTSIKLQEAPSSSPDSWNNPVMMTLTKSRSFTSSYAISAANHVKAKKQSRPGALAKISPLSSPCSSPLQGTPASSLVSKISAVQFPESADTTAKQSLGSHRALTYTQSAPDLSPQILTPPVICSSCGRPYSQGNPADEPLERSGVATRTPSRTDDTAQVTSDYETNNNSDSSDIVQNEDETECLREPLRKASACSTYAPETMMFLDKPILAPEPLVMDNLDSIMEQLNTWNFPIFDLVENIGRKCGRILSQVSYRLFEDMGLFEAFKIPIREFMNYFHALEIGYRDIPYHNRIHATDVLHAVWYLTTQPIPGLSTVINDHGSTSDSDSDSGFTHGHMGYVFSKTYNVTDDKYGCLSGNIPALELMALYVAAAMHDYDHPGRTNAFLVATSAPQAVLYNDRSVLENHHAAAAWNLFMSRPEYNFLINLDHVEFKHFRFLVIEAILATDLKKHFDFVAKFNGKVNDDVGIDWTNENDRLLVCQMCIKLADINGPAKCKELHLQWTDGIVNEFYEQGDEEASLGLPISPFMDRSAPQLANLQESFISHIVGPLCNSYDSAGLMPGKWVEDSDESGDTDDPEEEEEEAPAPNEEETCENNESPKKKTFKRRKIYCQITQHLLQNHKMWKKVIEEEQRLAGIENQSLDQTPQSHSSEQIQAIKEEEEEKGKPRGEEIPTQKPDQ

Cn1c(=O)c2c(ncn2CCN2CCN(c3ccc([N+](=O)[O-])cc3)CC2)n(C)c1=O [KMUP-3]
PDE3 inhibition [1]: 55 ± 2.5 % | Cdyn, Maximum change of baseline (%) (respiratory performance): 50 ± 5.5 % | RL, Maximum change of baseline (%) (respiratory performance): −55 ± 4.5 % | Tidal Volume, Maximum change of baseline (%) (respiratory performance): 21.7 ± 0.5 % | effect on Cdyn in TNF-_-induced bronchocontraction (FIG. 2) [2, 3]: increasing Cdyn | effect on RL in TNF-_-induced bronchocontraction (FIG. 2) [2, 3]: decreasing RL | Blood pressure and heart rate ([2]; intratracheal instillation, during recording of lung function): not significantly changed | NO2— release in comparison with the basal level (guinea pig TSM strips): 160±15%

From patent US20080051413A1, “Nitrophenylpiperazine derivative of xanthine which relaxes tracheal airway and increases respiratory performance” (KAOHSIUNG MEDICAL UNIVERSITY, priority 2006, published 2008)
